# According to patent publication US11235057B2, “Methods for providing polymeric synthetic nanocarriers for generating antigen-specific tolerance immune responses” (Selecta Biosciences, Inc., priority 2011, dated 2022):
# Test system: Treg cells (CD4+CD25highFoxP3+)
# Assay: Antigen-specific tolerogenic dendritic cells (tDC) activity on Treg cell development
# Assay type: cell-based, OTII mice
# Conditions: FIG. 3; tDC cultured with OTII T cells 4-5 days, flow cytometry
# Description: The assay included the use of OTII mice which have a transgenic T cell receptor specific for an immune-dominant ovalbumin peptide (323-339). In order to create antigen-specific tDCs, CD11c^+ splenocytes were isolated, and the ovalbumin peptide (323-339) added in vitro at 1 μg/ml or no antigen. Soluble or nanocarrier-encapsulated rapamycin was then added to the DCs for 2 hours which were then washed extensively to remove free rapamycin from the culture. Purified responder CD4^+CD25^− cells were isolated from OTII mice and added to tDC at a 10:1 T to DC ratio. The mixture of tDC and OTII T cells were then cultured for 4-5 days, and the frequency of Treg cells (CD4^+CD25highFoxP3^+) were analyzed by flow cytometry as shown in FIG. 1. Regions were selected based on isotype controls.
# Free rapamycin or synthetic nanocarriers containing rapamycin were combined with free soluble Ovalbumin (323-339) to evaluate induction of tDC (FIG. 2). […] Briefly, antigen specific tDC were obtained by isolating dendritic cells (CD11c^+ splenocytes) and culturing them in combination with the Ovalbumin (323-339) peptide plus soluble or nanocarrier encapsulated rapamycin (Synthetic Nanocarrier #s 13, 14, 15 and 16) for 2 hours followed by extensive washing. […] The mixture of tDC and OTII T cells were then cultured for 4-5 days, and the frequency of Treg cells (CD4^+CD25highFoxP3^+) were analyzed by flow cytometry.
structure (smiles),measurement,value
CO[C@H]1C[C@@H]2CC[C@@H](C)[C@@](O)(O2)C(=O)C(=O)N2CCCC[C@H]2C(=O)O[C@H]([C@H](C)C[C@@H]2CC[C@@H](O)[C@H](OC)C2)CC(=O)[C@H](C)/C=C(\C)[C@@H](O)[C@@H](OC)C(=O)[C@H](C)C[C@H](C)/C=C/C=C/C=C/1C [rapamycin],induction of FoxP3 expressing cells,2.7%
